# According to patent US12128024B2 (GEORGETOWN UNIVERSITY, priority 2004, dated 2024):
# Columns and labels:
# [1] = cited from earlier work
# [2] = tested on: cervical cancer cell lines (HeLa, SiHa, Caski); assay: Viability dose-response of cervical cancer cell lines (FIG. 3); assay type: cell-based; conditions: 72 h, 25 μM DHA, within 3 days of treatment, read-out: loss of viability
# [3] = tested on: HeLa cells; assay: Viability dose-response of HeLa cells (FIG. 3); assay type: cell-based; conditions: 25 μM DHA
# [4] = tested on: MJ, HTLV-I positive cutneous T cell leukemia line; assay: Trypan blue viability of HTLV-I positive lymphoid cell line (FIG. 5); assay type: cell-based; conditions: Primate T-lymphotropic virus 1, T-cell; 6.25 μM DHA; MJ cells; read-out: cells killed (viability as % of controls, trypan blue)
# Experimental: (§1) One cell line, referred to as MJ, is an HTLV-I positive cutneous T cell leukemia line and the other cell line, referred to Namalwa, is an EBV positive Burkitt's lymphoma B cell line.
# (§2) The cell lines were maintained in culture, using RPMI 1640 medium, supplemented with 10% fetal bovine serum and antibiotics. For the assay, 100,000 cells, in volumes of 100 μl medium, were placed in micro-titer wells; an additional 100 μl medium, containing 0 μM, 6.25 μM, 12.5 μM, 25 μM, 50 μM, 100 μM and 200 μM concentrations of DHA, were added. The negative controls contained medium only. The DHA stock (20 mM) was used to dilute the drug in concentrations ranging from 0 to 200 μM. All experiments were performed in triplicate. After incubation at 37° C. and 5% CO2, for various time periods, the cells were counted in a hemocytometer in the presence of trypan blue. Viability was expressed, as % of controls (no drug).
# [5] = tested on: Namalwa, EBV positive Burkitt's lymphoma B cell line; assay: Trypan blue viability of EBV positive lymphoid cell line (FIG. 4); assay type: cell-based; conditions: human gammaherpesvirus 4, B-cell; 6.25 μM DHA; Namalwa cells; read-out: cells killed (viability as % of controls, trypan blue)
# Experimental: as §1, §2
# [6] = tested on: cervical cancer cell lines; assay: Morphology of cervical cancer cell lines after artemisinin treatment (phase contrast microscopy, FIG. 2); assay type: cell-based; conditions: 25 μM artemisinin, 3 days, vs control solvent
# [7] = tested on: normal cervical cells (HCX); assay: Morphology of normal cervical cells after artemisinin treatment (phase contrast microscopy, FIG. 2); assay type: cell-based; conditions: 25 μM artemisinin, 3 days, vs control solvent
smiles,measurement,setting,value
C[C@H]1[C@@H](OCc2ccc(C(=O)O)cc2)O[C@@H]2O[C@@]3(C)CC[C@H]4[C@H](C)CC[C@@H]1[C@@]24OO3 [artelinic acid],solubility in water compared with artemisinin,[1],higher solubility in water
CO[C@H]1O[C@@H]2O[C@@]3(C)CC[C@H]4[C@H](C)CC[C@@H]([C@H]1C)[C@@]24OO3 [artemether],solubility in water compared with artemisinin,[1],higher solubility in water
"C[C@H]1[C@@H](O)O[C@@H]2O[C@@]3(C)CC[C@H]4[C@H](C)CC[C@@H]1[C@@]24OO3 [DHA, dihydroartemisinin]",cytotoxicity at 25 µM,[2],80%
same,cell death,[3],95%
same,cytotoxicity at 6.25 µM,[4],~60%
same,cytotoxicity at 6.25 µM,[5],~60%
same,solubility in water compared with artemisinin,[1],higher solubility in water
CCCOC(=O)OC1O[C@@H]2O[C@@]3(C)CC[C@H]4[C@H](C)CC[C@@H]([C@H]1C)[C@@]24OO3 (some centres unmarked) [propylcarbonate dihydroartemisinin],solubility in water compared with artemisinin,[1],higher solubility in water
CCO[C@H]1O[C@@H]2O[C@@]3(C)CC[C@H]4[C@H](C)CC[C@@H]([C@H]1C)[C@@]24OO3 [arteether],solubility in water compared with artemisinin,[1],higher solubility in water
C[C@@H]1CC[C@H]2[C@@H](C)C(=O)O[C@@H]3O[C@@]4(C)CC[C@@H]1[C@]32OO4 [artemisinin],change in morphology of cervical cancer cells,[6],rounded up and detached from the tissue culture plate
same,change in morphology of normal cervical cells (HCX),[7],little change in morphology
